Measured values taken from US6514946B1, “Macrolide antibiotics and treatment and prophylaxis of pasteurellosis using the same” (Zaidan Hojin Biseibutsu Kagaku Kenkyu Kai, priority 1999, dated 2003).
≈ marks a conversion by molar mass, not a printed value.

Assays:
[1] = test system: E. coli K-12 R-5; assay: Minimum inhibition concentration (MIC), agar double dilution method; assay type: cell-based, Escherichia coli; conditions: Escherichia coli, K12R5, Mueller hinton agar, read-out: MIC
Procedure: Test 1; Minimum Inhibition Concentration (MIC)
MIC was measured, based on the standard method of Japan Society of Chemotherapy, on a BHI agar medium (Brain heart-infusion agar, made by Difco Laboratories Inc.(USA)) with respect to Pasteurella and on a Mueller hinton agar medium (Mueller hinton agar, made by Difco, Laboratories Inc.(USA)) with respect to the other test bacteria in both cases according to the double dilution method.

[2] = test system: H. somnus; assay: Bacteria separation test from nasal cavity swab; assay type: in vivo, cattle
[3] = test system: P. haemolytica 63-39 intraperitoneally infected mice; assay: Antiinfective test on infected mice
[4] = test system: P. haemolytica 63-39; assay: Sensitivity (MIC), agar plate dilution method; conditions: Mannheimia haemolytica, 6339

CC[C@H]1OC(=O)C[C@@H](O)[C@H](C)[C@@H](O[C@@H]2O[C@H](C)C(O)C(N(C)C)C2O)[C@@H](CCN2CC(C)CC(C)C2)C[C@@H](C)C(=O)/C=C/C(C)=C/[C@@H]1CO[C@@H]1OC(C)C(O)[C@@H](OC)C1OC (some centres unmarked) [Tilmicosin, tilmicosin]
MIC [1]: > 100 µg/mL
Separation rate (%) at completion (number of animal) ([2]; at completion): 0 (0/5) % (number of animal)
Separation rate (%) before administration (number of animal) ([2]; before administration (baseline)): 0 (0/5) % (number of animal)
ED50 ([3]; Mannheimia haemolytica, in Mus musculus, sc, 168 h, read-out: ED50 (95% confidence limit)): 26.2 mg/kg
Surviving number after 7 days/test number ([3]; dose 1 mg/kg subcutaneous one hour after infection): 0/10
Surviving number after 7 days/test number ([3]; dose 5 mg/kg subcutaneous one hour after infection): 0/10
Surviving number after 7 days/test number ([3]; dose 10 mg/kg subcutaneous one hour after infection): 3/10
Surviving number after 7 days/test number ([3]; dose 20 mg/kg subcutaneous one hour after infection): 4/10
Surviving number after 7 days/test number ([3]; dose 30 mg/kg subcutaneous one hour after infection): 5/10
ED90 ([3]; probit method from surviving numbers after 7 days, subcutaneous): 102.1 mg/kg
MIC [4]: 3.13 µg/mL (≈ 3.6 µM)
